Assay in all cases: NCI anticancer screen, dose series, 48 h
In experiment [1] the test system is U251 CNS.
Experiment [2] has as its system MDA-N.
Experiment [3] has as its system MCF7 breast.
Experiment [4] relates to RPMI-8226 leukemia.
Experiment [5] deals with RXF 393 renal.
Experiment [6] deals with HOP-92 NSCLC.
In experiment [7] the test system is HOP-62 NSCLC.
Experiment [8] concerns BT-549 breast.
Experiment [9] has as its system SW-620 colon.
Experiment [10] relates to NCI-H460 lung.
Experiment [11] relates to UACC-62 melanoma.

Here are results for 18 compounds from PubChem BioAssay (NCI).

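Each compound was tested at five concentrations against cells in 96-well plates for 48 hours. TGI: concentration producing complete growth inhibition.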 Where a SMILES comes first, the peptide text is derived from it.

As for `CC/C=C/C(/C=C/C[C@]1(CC)C[C@H](CC)[C@H](CC(=O)O)OO1)CC` (stereo partly drawn), the TGI is 3.36 µM in experiment [1]; 3.71 µM in experiment [2]; 6.62 µM in experiment [3]; 4.43 µM in experiment [4]; 6.3 µM in [5]; 4.72 µM in [6]. Also, the TGI in experiment [7] is 3.5 µM; in [8] it was 18.3 µM; in [9], 5.1 µM; in experiment [10], 4.25 µM; in experiment [11], 12.1 µM.
Turning to `COc1cccc(C(=O)N[C@@H]2[C@H](O)[C@@H](CO)O[C@H]2n2cnc3c(N)ncnc32)c1`, the TGI in [1], in experiment [2], in [3], in [4], in [5] and in experiment [6] was more than 100 µM in each case. For the same compound, the TGI in experiment [7], in experiment [8], in [9], in [10] and in experiment [11] was more than 100 µM in each case.
As to `CCCCCCC(=O)OC[n+]1cccc(-c2c(COC(=O)NC(C)C)c(COC(=O)NC(C)C)c3n2CCC3)c1`, the TGI in experiment [1] was more than 100 µM; in experiment [2], more than 100 µM; in experiment [3], more than 100 µM; in [4], more than 100 µM; in experiment [5], 51.5 µM; in experiment [6], 66.4 µM. Moreover, the TGI in experiment [7] was more than 100 µM; in experiment [8], more than 96.4 µM; in experiment [9], more than 100 µM; in [10], more than 100 µM; in experiment [11] it was 72.9 µM.
As to `Cc1cc(-c2ccc(C(=O)C(c3ccccc3)(c3ccccc3)c3ccccc3)[nH]2)on1`, the TGI was 37.1 µM in experiment [1]; 41 µM in experiment [2]; more than 100 µM in [3]; 48.1 µM in experiment [4]; 9.46 µM in [5]; 51.8 µM in experiment [6]. Further, the TGI in experiment [7] worked out at 53.5 µM; in experiment [8] it was 45.8 µM; in experiment [9] it was 75 µM; in experiment [10], 21.6 µM; in experiment [11], 37 µM.
As for `Nc1cc(N)c(N=Nc2cccc3c(S(=O)(=O)O)cccc23)cc1N=Nc1cc([N+](=O)[O-])ccc1O`, the TGI in [1] was more than 100 µM; in experiment [2] it was more than 100 µM; in [3], more than 100 µM; in experiment [4] it was more than 100 µM; in experiment [5] it was more than 100 µM; in [6], 98.7 µM. Also, the TGI in experiment [7] was more than 100 µM; in [8], more than 100 µM; in [9] it was more than 100 µM; in experiment [10], 74.1 µM; in experiment [11] it was 59.2 µM.
With `C=CC[C@H]1[C@H](O[Si](C)(C)C(C)(C)C)C=CC(=O)[C@@H]1CC(=O)OCC`, the TGI in experiment [1] turned out to be 27.8 µM; in experiment [2], 29.1 µM; in experiment [3], 23.7 µM; in experiment [4], 12.2 µM; in [5], 25.7 µM; in [6], 24.2 µM. In addition, the TGI stood at 34.5 µM in experiment [7]; 30.3 µM in [8]; 33 µM in [9]; 27.6 µM in [10]; 24.1 µM in experiment [11].
Take `CC(=O)Nc1nnc(S(=O)(=O)NC(=S)Nc2ccc(Cl)cc2)s1`: the TGI in experiment [1], in experiment [2], in [3], in [4], in [5] and in experiment [6] was more than 100 µM each time. For the same compound, the TGI in [7], in experiment [8], in experiment [9], in experiment [10] and in experiment [11] was more than 100 µM each time.
For `CN1CCCC(C(=O)OCC(=O)C2(O)CCC3C4CCC5=CC(=O)CCC5(C)C4C(O)CC32C)C1` (stereo not drawn), the TGI in experiment [1] was 16 µM; in experiment [2], 26.8 µM; in [3] it was more than 65.6 µM; in [4], 27.8 µM; in [5], 23.1 µM; in experiment [6], more than 100 µM. The TGI in [7] is 31 µM; in experiment [8], 33.6 µM; in [9], more than 79.2 µM; in experiment [10], 28.5 µM; in experiment [11], 37.7 µM.
In the case of `CC(=O)/C(=C(/Br)I)c1ccccc1`, the TGI in experiment [1] is 26.5 µM; in [2], 14.8 µM; in experiment [3] it was 19.1 µM; in [4] it was 9.35 µM; in [5] it was 13.3 µM; in experiment [6] it was 23.8 µM. Also, the TGI in experiment [7] is 29.7 µM; in experiment [8] it was 6.33 µM; in experiment [9], 11.4 µM; in experiment [10], 48.3 µM; in [11], more than 48.4 µM.
For the compound `COC(=O)C1(C)OC(C)=NC1(C(=O)OC)C(=O)OC` (stereo not drawn), the TGI in [1], in [2], in [3], in experiment [4], in [5] and in experiment [6] was more than 100 µM in each case. For the same compound, the TGI in experiment [7] was more than 100 µM; in experiment [8], more than 31.6 µM; in experiment [9] it was more than 100 µM; in experiment [10], more than 100 µM; in experiment [11], more than 100 µM.
On to `COC(=O)CNCC1OC2OC(C)(C)OC2C1N=[N+]=[N-]` (stereo not drawn), for which the TGI in [1], in experiment [2], in experiment [3], in experiment [4], in [5] and in [6] was more than 100 µM throughout. In addition, the TGI in experiment [7], in experiment [8], in experiment [9], in experiment [10] and in experiment [11] was more than 100 µM in each case.
`O=c1c(Sc2ncccn2)c(Sc2ncccn2)cnn1CCl`: the TGI in [1] was 19.7 µM; in [2], 5.59 µM; in experiment [3], 11.6 µM; in [4] it was more than 20.6 µM; in [5], 3.46 µM; in experiment [6] it was 7.38 µM. For the same compound, the TGI in experiment [7] is 8.05 µM; in experiment [8], 31 µM; in experiment [9], 17.9 µM; in experiment [10], 32.9 µM; in experiment [11], 19 µM.
Turning to `CC(=O)NC(CO)C(=O)NC(Cc1ccc(O)cc1)C(=O)NCC(N)=O` (stereo not drawn) (Ac-Ser-Tyr-Gly-NH2; configuration not given here), the TGI in [1], in experiment [2], in [3], in experiment [4], in experiment [5] and in experiment [6] was more than 100 µM throughout. In addition, the TGI in [7], in [8], in experiment [9], in experiment [10] and in experiment [11] was more than 100 µM each time.
`Oc1ccc(Cn2c(-c3ccc(O)cc3)nc3ccccc32)cc1`: the TGI in experiment [1], in experiment [2], in [3], in [4], in experiment [5] and in experiment [6] was more than 100 µM throughout. Also, the TGI in [7], in [8], in [9], in experiment [10] and in experiment [11] was more than 100 µM each time.
With `CCOP(=O)(OCC)C(=C1C=C(C(C)(C)C)C(=O)C(C(C)(C)C)=C1)P(=O)(OCC)OCC`, the TGI in [1] was more than 10 µM; in experiment [2] it was more than 9.4 µM; in experiment [3], more than 10 µM; in [4], more than 10 µM; in experiment [5], more than 10 µM; in experiment [6] it was 6.37 µM. Further, the TGI is more than 10 µM in [7]; 5.16 µM in [8]; 3.55 µM in experiment [9]; more than 10 µM in [10]; more than 10 µM in experiment [11].
In the case of `Cc1cn2c(/C=C3/C(=O)Nc4ccccc43)c(C)nc2s1`, the TGI in [1] was 10.9 µM; in experiment [2], 0.492 µM; in experiment [3], more than 100 µM; in experiment [4], 21 µM; in [5], more than 100 µM; in experiment [6], more than 100 µM. Moreover, the TGI was more than 100 µM in experiment [7]; more than 100 µM in experiment [8]; 77.3 µM in [9]; 16.1 µM in [10]; more than 100 µM in experiment [11].
As for `OC1(c2ccc3ccccc3c2)c2c(c3ccccc3c3ccccc23)C2=NCCN21` (stereo not drawn), the TGI in experiment [1] stood at 17.7 µM; in experiment [2], 4.28 µM; in experiment [3], 15.8 µM; in experiment [4], 6.87 µM; in [5], 7.68 µM; in experiment [6], 70.3 µM. Moreover, the TGI in experiment [7] is 23.3 µM; in [8], more than 37.3 µM; in [9], 23 µM; in [10] it was more than 40.5 µM; in experiment [11], more than 55.1 µM.
For `O=C(O)CO/N=C1/C(c2c(O)[nH]c3ccccc23)=Nc2ccccc21`, the TGI in [1] is more than 100 µM; in [2], more than 100 µM; in experiment [3], more than 100 µM; in [4], more than 100 µM; in [5], 52.7 µM; in experiment [6] it was more than 100 µM. The TGI in [7], in experiment [8], in experiment [9], in experiment [10] and in experiment [11] was more than 100 µM each time.
